Like-named read-outs stand apart in the source and are kept apart here.
Key:
[1] = biological target: T1, hCA I (Homo sapiens, UniProt P00915); assay: CA inhibition, stopped-flow CO2 hydration assay; format: biochemical; details: stopped-flow technique; mean from three assays
T1 construct: made in house
Description: (§1) The CO2 hydration activity of the four hCA isoforms was monitored using an Applied Photophysics stopped-flow instrument. Phenol red (at a concentration of 0.2 mM) was used as an indicator, working at the absorbance maximum of 557 nm, with 10 mM HEPES (pH 7.4) as a buffer, and 20 mM NaClO4 (for maintaining constant the ionic strength), following the initial rates of the CA-catalyzed CO2 hydration reaction for a period of 10–100 s. To determine the kinetic parameters by Lineweaver-Burk plots and the inhibition constants, a concentration of CO2 between 1.7 to 17 mM was used. At least six measurements of the original 5–10% reaction were used to assess the initial velocity for each inhibitor. The uncatalyzed rates were determined and detracted from the total observed rates. Stock inhibitor solutions (10–100 mM) were prepared in distilled-deionized water, and dilutions up to 0.1 nM were done with the buffer test. […] The inhibition constants were obtained by non-linear least-squares methods using PRISM 6 and the Cheng-Prusoff equation, as reported earlier, and represent the mean from at least three different determinations.

[2] = biological target: T2, hCA II (Homo sapiens, UniProt P00918); assay: CA inhibition, stopped-flow CO2 hydration assay; format: biochemical; details: stopped-flow technique; mean from three assays
T2 construct: made in house
Description: as §1

[3] = biological target: T3, hCA IX (Homo sapiens, UniProt Q16790); assay: CA inhibition, stopped-flow CO2 hydration assay; format: biochemical; details: stopped-flow technique; mean from three assays
T3 construct: made in house
Description: as §1

[4] = biological target: T4, hCA XII (Homo sapiens, UniProt O43570); assay: CA inhibition, stopped-flow CO2 hydration assay; format: biochemical; details: stopped-flow technique; mean from three assays
T4 construct: made in house
T4 sequence (O43570 25-354): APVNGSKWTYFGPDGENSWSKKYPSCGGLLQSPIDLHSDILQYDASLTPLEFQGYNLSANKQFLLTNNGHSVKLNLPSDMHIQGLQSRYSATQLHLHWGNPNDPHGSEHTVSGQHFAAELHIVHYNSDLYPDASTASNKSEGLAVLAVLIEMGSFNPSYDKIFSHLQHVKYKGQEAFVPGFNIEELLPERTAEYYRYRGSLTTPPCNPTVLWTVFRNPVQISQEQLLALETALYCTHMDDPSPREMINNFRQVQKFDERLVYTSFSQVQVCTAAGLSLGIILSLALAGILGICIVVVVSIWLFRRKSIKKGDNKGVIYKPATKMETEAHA
Description: as §1

[5] = tested on: MCF7 cells; assay: Antiproliferative activity, MTT test; format: cell-based; details: Homo sapiens, MTT assay after 72 h exposure
Description: A series of synthesized indoline-5-sulfonamides was tested on the MCF7 cancer cell line under normoxia and hypoxia using the MTT test.
The MDR subline K562/4 [77] (kind gift of Dr. Alexander Shtil, Blokhin N.N. National Medical Research Center of Oncology) was obtained by stepwise selection of K562 cells for survival under continuous exposure to Dox. This subline expresses the MDR1 gene and functional P-gp and is characterized by a high resistance index for Dox. […] Cells in the logarithmic phase of growth were used in the experiments. The growth inhibitory activity of compounds was assessed by the MTT test based on the metabolism of the MTT reagent (3-[4,5-dimethylthiazol-2-yl]-2,5-diphenyltetrazolium bromide) (Applichem) in living cells, with modifications as described previously in [49]. Compounds at different concentrations in 100 μL of the appropriate medium were added, and the cells were grown for 72 h. The hypoxia (1% O2) conditions were simulated in Binder multigas incubator, as described in [49]. After incubation with compounds, the medium was removed, the MTT reagent that was dissolved in the medium was added to the final concentration of 0.2 mg/mL to each well, and the incubation was performed for 2 h. Then the cell supernatants were removed, and purple formazan crystals were dissolved in 100% DMSO (350 μL per well). Culture plates were gently shaken, and the absorbance was measured at 571 nm with a reference wavelength of 630 nm on a MultiScan reader (ThermoFisher, Waltham, MA, USA). The viability of the cells was expressed as a percentage of the control. Dose-response curves were analyzed by regression analysis using sigmoid curves (Log(concentration) vs. normalized absorbance).
All results were reported as means ± SD. One-way analysis of variance was used for the analysis of data. Differences were defined as significant at p < 0.05. GraphPad Prism7 (GraphPad Software, San Diego, CA, USA) was used for the determination of the half-maximal inhibitory concentration (IC50) values.

[6] = hypoxia (1% O2), read-out: IC50 against MCF7 Cells, Hypoxia
[7] = normoxia, read-out: IC50 against MCF7 Cells, Normoxia

T1 sequence (P00915 whole entry): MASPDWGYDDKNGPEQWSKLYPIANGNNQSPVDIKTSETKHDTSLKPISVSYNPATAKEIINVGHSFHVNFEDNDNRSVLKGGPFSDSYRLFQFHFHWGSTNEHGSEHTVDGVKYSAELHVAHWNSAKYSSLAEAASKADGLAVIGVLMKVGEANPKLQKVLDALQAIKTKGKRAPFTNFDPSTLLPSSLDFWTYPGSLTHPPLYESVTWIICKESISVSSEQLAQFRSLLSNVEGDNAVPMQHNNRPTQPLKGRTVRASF

| Structure (SMILES) | Ki [1] | Ki [2] | Ki [3] | Ki [4] | IC50 [5, 6] | IC50 [5, 7] | melting point |
| --- | --- | --- | --- | --- | --- | --- | --- |
| NS(=O)(=O)c1ccc2c(c1)CCN2C(=O)c1ccccc1[N+](=O)[O-] [Compound 4o, 1-(2-Nitrobenzoyl)indoline-5-sulfonamide] | 0.0834 µM | 0.0045 µM | > 10 µM | 0.12 µM | 39.5 ± 3.4 µM | 43.7 ± 3.7 µM | 238 to 240 °C |
| NS(=O)(=O)c1ccc2c(c1)CCC2NC(=O)c1c(F)c(F)c(F)c(F)c1F (centres unmarked) [Compound 3, reference compound] |  |  |  |  | > 50 µM | > 50 µM |  |
| NS(=O)(=O)c1ccc2c(c1)CCN2C(=O)C1CCCC1 [Compound 4s, 1-(Cyclopentanecarbonyl)indoline-5-sulfonamide] | 0.0609 µM | 0.0071 µM | 0.133 µM | 0.0881 µM | > 50 µM | > 50 µM | 233 to 235 °C |
| NS(=O)(=O)c1ccc2c(c1)CCN2C(=O)c1ccc(Cl)c(Cl)c1 [Compound 4h, 1-(3,4-Dichlorobenzoyl)indoline-5-sulfonamide] | 0.35 µM | 0.054 µM | > 10 µM | 0.056 µM | 48.7 ± 4.5 µM | 35.2 ± 3.5 µM | > 250 °C |
| NS(=O)(=O)c1ccc2c(c1)CCN2C(=O)c1c(F)cccc1F [Compound 4d, 1-(2,6-Difluorobenzoyl)indoline-5-sulfonamide] | 0.268 µM | 0.0091 µM | 1.33 µM | 0.0413 µM | 35.9 ± 3.4 µM | > 50 µM | 244 to 246 °C |
| NS(=O)(=O)c1ccc2c(c1)CCN2C(=O)C1CCCCC1 [Compound 4u, 1-(Cyclohexanecarbonyl)indoline-5-sulfonamide] | 0.067 µM | 0.0018 µM | 0.223 µM | > 10 µM | 39.2 ± 3.4 µM | 37.1 ± 3.5 µM | > 250 °C |
| NS(=O)(=O)c1ccc2c(c1)CCN2C(=O)CC1CCCC1 [Compound 4t, 1-(2-Cyclopentylacetyl)indoline-5-sulfonamide] | 0.0516 µM | 0.0035 µM | 0.177 µM | > 10 µM | 36 ± 3.3 µM | 38 ± 3.5 µM | 184 to 186 °C |
| Cc1cccc(C(=O)N2CCc3cc(S(N)(=O)=O)ccc32)c1 [Compound 4i, 1-(3-Methylbenzoyl)indoline-5-sulfonamide] | 0.22 µM | 0.0361 µM | > 10 µM | 0.0939 µM | 43.6 ± 4 µM | > 50 µM | 247 to 249 °C |
| COc1ccc(C(=O)N2CCc3cc(S(N)(=O)=O)ccc32)cc1 [Compound 4k, 1-(4-Methoxybenzoyl)indoline-5-sulfonamide] | 0.0777 µM | 0.0093 µM | 0.173 µM | > 10 µM | > 50 µM | > 50 µM | 240 to 242 °C |
| CSc1ccc(C(=O)N2CCc3cc(S(N)(=O)=O)ccc32)cc1 [Compound 4n, 1-(4-(Methylthio)benzoyl)indoline-5-sulfonamide] | 0.0714 µM | 0.0093 µM | 1.99 µM | 0.091 µM | > 50 µM | 18.4 ± 1.6 µM | 245 to 247 °C |
| NS(=O)(=O)c1ccc2c(c1)CCN2C(=O)c1ccc(Cl)cc1 [Compound 4g, 1-(4-Chlorobenzoyl)indoline-5-sulfonamide] | 0.242 µM | 0.0662 µM | > 10 µM | 0.057 µM | 24.2 ± 2.1 µM | 36.5 ± 3.3 µM | > 250 °C |
| NS(=O)(=O)c1ccc2c(c1)CCN2C(=O)c1ccncc1 [Compound 4q, 1-Isonicotinoylindoline-5-sulfonamide] | 0.064 µM | 0.0125 µM | 2.39 µM | > 10 µM | > 50 µM | > 50 µM | > 250 °C |
| NS(=O)(=O)c1ccc2c(c1)CCN2Cc1ccccc1 [Compound 10, 1-Benzylindoline-5-sulfonamide] | 0.041 µM | 0.003 µM | > 10 µM | > 10 µM | 34.8 ± 3.2 µM | 23.6 ± 2 µM | 144 to 146 °C |
| NS(=O)(=O)c1ccc2c(c1)CCN2C(=O)c1ccc(F)cc1 [Compound 4c, 1-(4-Fluorobenzoyl)indoline-5-sulfonamide] | 0.0883 µM | 0.0095 µM | 2.25 µM | > 10 µM | 32.7 ± 2.8 µM | 40.6 ± 3.8 µM | > 250 °C |
| COc1ccc(C(=O)N2CCc3cc(S(N)(=O)=O)ccc32)c(OC)c1 [Compound 4l, 1-(2,4-Dimethoxybenzoyl)indoline-5-sulfonamide] | 0.0715 µM | 0.004 µM | 0.203 µM | 0.113 µM | > 50 µM | 37 ± 3 µM | 249 to 251 °C |
| NS(=O)(=O)c1ccc2c(c1)CCN2C(=O)c1ccc([N+](=O)[O-])cc1 [Compound 4p, 1-(4-Nitrobenzoyl)indoline-5-sulfonamide] | 0.0605 µM | 0.0422 µM | 2.11 µM | 0.198 µM | 39.9 ± 3.5 µM | 48.8 ± 4.4 µM | 247 to 249 °C |
| NS(=O)(=O)c1ccc2c(c1)CCN2C(=O)c1cccs1 [Compound 4r, 1-(Thiophene-2-carbonyl)indoline-5-sulfonamide] | 0.0422 µM | 0.005 µM | 0.177 µM | 0.147 µM | 39.1 ± 3.9 µM | 47.7 ± 3.8 µM | > 250 °C |
| NS(=O)(=O)c1ccc2c(c1)CCN2C(=O)c1ccccc1 [Compound 4a, 1-Benzoylindoline-5-sulfonamide] | 0.079 µM | 0.0054 µM | > 10 µM | 0.258 µM | 36.9 ± 3.5 µM | > 50 µM | > 250 °C |
| COc1cccc(C(=O)N2CCc3cc(S(N)(=O)=O)ccc32)c1 [Compound 4j, 1-(3-Methoxybenzoyl)indoline-5-sulfonamide] | 0.0677 µM | 0.0092 µM | > 10 µM | 0.11 µM | > 50 µM | 46.2 ± 3.6 µM | 225 to 227 °C |
